In the supplement of paper PMC10627819:

Experiments:
Experiment in all cases: Bliss interaction score (quartile over a dose matrix) (fitness difference); higher = more antagonism (negative = synergy)
B. subtilis 168 = system: B. subtilis 168
How it was run: (§1)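 Values were capped at 1 after dividing OD595 at stationary-phase entry by the plate's robust no-drug mean. This ratio is fitness, and single-drug fitness was inferred from the combination data. The Bliss score is observed minus product-expected fitness, given as quartiles over technical, biological and donor/recipient replicates.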

S. aureus DSM 20231 = system: S. aureus DSM 20231
How it was run: as §1

S. aureus Newman = system: S. aureus Newman
How it was run: as §1

S. pneumoniae D39V = system: S. pneumoniae D39V
How it was run: as §1
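Note: first quartile when negative (synergy) and third quartile when positive (antagonism).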

| Compound | Bliss interaction score (B. subtilis 168) | Bliss interaction score (S. aureus DSM 20231) | Bliss interaction score (S. aureus Newman) | Bliss interaction score (S. pneumoniae D39V) |
| --- | --- | --- | --- | --- |
| CC1(C)S[C@@H]2[C@H](NC(=O)[C@H](N)c3ccc(O)cc3)C(=O)N2[C@H]1C(=O)O [Amoxicillin] + C1=CC(=CC(=C1)Cl)NN=C(C#N)C#N [CCCP] | 0.115 | -0.0295 | -0.0504 | -0.0978 |
| CC1(C)S[C@@H]2[C@H](NC(=O)[C@H](N)c3ccc(O)cc3)C(=O)N2[C@H]1C(=O)O [Amoxicillin] + CC1(C)S[C@@H]2[C@H](NC(=O)Cc3ccccc3)C(=O)N2[C@H]1C(=O)O [PenicillinG] | -0.186 | -0.0644 | 0.0595 | -0.0781 |
| CC1(C)S[C@@H]2[C@H](NC(=O)[C@H](N)c3ccc(O)cc3)C(=O)N2[C@H]1C(=O)O [Amoxicillin] + CC(=O)O[C@H]1C[C@@]2(C)[C@@H](C[C@@H](O)[C@H]3[C@@]4(C)CC[C@@H](O)[C@@H](C)[C@@H]4CC[C@@]32C)/C1=C(\CCC=C(C)C)C(=O)O [Fusidic acid] | 0.0608 | 0.0361 | -0.0375 | 0.143 |
| CC1(C)S[C@@H]2[C@H](NC(=O)[C@H](N)c3ccc(O)cc3)C(=O)N2[C@H]1C(=O)O [Amoxicillin] + CCP(CC)CC.CC(=O)OC[C@@H]1[C@H]([C@@H]([C@H]([C@@H](O1)[S-])OC(=O)C)OC(=O)C)OC(=O)C.[Au+] [Auranofin] | -0.0508 | 0.0373 | -0.0817 | 0.178 |
| CC1(C)S[C@@H]2[C@H](NC(=O)[C@H](N)c3ccc(O)cc3)C(=O)N2[C@H]1C(=O)O [Amoxicillin] + CC[C@H]1OC(=O)[C@H](C)C(=O)[C@H](C)[C@@H](O[C@@H]2O[C@H](C)C[C@H](N(C)C)[C@H]2O)[C@](C)(OC)C[C@@H](C)C(=O)[C@H](C)[C@H]2N(CCCCn3cnc(-c4cccnc4)c3)C(=O)O[C@]12C [Telithromycin] | -0.0851 | -0.0292 | -0.0609 | 0.0336 |
| CC1(C)S[C@@H]2[C@H](NC(=O)[C@H](N)c3ccc(O)cc3)C(=O)N2[C@H]1C(=O)O [Amoxicillin] + CC[C@H]1OC(=O)[C@H](C)[C@@H](O[C@H]2C[C@@](C)(OC)[C@@H](O)[C@H](C)O2)[C@H](C)[C@@H](O[C@@H]2O[C@H](C)C[C@H](N(C)C)[C@H]2O)[C@](C)(O)C[C@@H](C)C(=O)[C@H](C)[C@@H](O)[C@]1(C)O [Erythromycin] | 0.0751 | -0.023 | -0.0553 | 0.0883 |
| CC1(C)S[C@@H]2[C@H](NC(=O)[C@H](N)c3ccc(O)cc3)C(=O)N2[C@H]1C(=O)O [Amoxicillin] + CN(C)[C@@H]1C(O)=C(C(N)=O)C(=O)[C@@]2(O)C(O)=C3C(=O)c4c(O)ccc(Cl)c4[C@@](C)(O)[C@H]3C[C@@H]12 [Clortetracycline] | 0.164 | 0.0294 | -0.0669 | 0.168 |
